Laboratory results: patent US9650395B2, “Antibacterial compounds and methods for use” (PTC Therapeutics, Inc., priority 2011, dated 2017)
Values after ≈ are worked out from the molar mass of the structure shown. Like-named read-outs stand apart in the source and are kept apart here.

Columns and labels:
[1] = test system: super sensitive Gram-negative Escherichia coli (E. coli) BAS849; assay: Antibacterial activity, microbroth dilution MIC, E. coli BAS849; type: cell-based; conditions: Escherichia coli, read-out: MIC, BAS849
[2] = test system: Gram-positive Staphylococcus aureus (S. aureus) 29213; assay: Antibacterial activity, microbroth dilution MIC, S. aureus 29213; type: cell-based; conditions: Staphylococcus aureus; S. aureus 29213, microbroth dilution; read-out: MIC, 29213
[3] = test system: E. coli ELZ4000 (MDR clinical isolate); assay: Antibacterial activity, MIC, MDR E. coli ELZ4000; type: cell-based, Escherichia coli; conditions: Escherichia coli; E. coli ELZ4000, MDR clinical isolate; read-out: MIC ELZ4000
[4] = test system: Neisseria meningitidis (N. meningitidis) 13090; assay: Antibacterial activity, MIC, N. meningitidis 13090; type: cell-based; conditions: Neisseria meningitidis; N. meningitidis 13090; read-out: MIC 13090
[5] = test system: Haemophilus influenzae (H. influenzae) 49247; assay: Antibacterial activity, MIC, H. influenzae 49247; type: cell-based; conditions: Haemophilus influenzae; H. influenzae 49247; read-out: MIC 49247
Description: (§1) The antibacterial activity from a microbroth dilution method may be presented as the minimum inhibitory concentration (MIC in […]). The MIC value is the lowest concentration of a drug which prevents macroscopically visible bacterial growth under test conditions.
Antibacterial activity of test compounds against the Gram-negative bacteria Haemophilus influenzae (H. influenzae) 49247, Moraxella catarrhalis (M. catarrhalis) 25238 and Neisseria meningitidis (N. meningitidis) 13090 is shown in Table 6.

[6] = test system: control Gram-negative E. coli 25922 strain; assay: Antibacterial activity, microbroth dilution MIC, E. coli 25922; type: cell-based, Escherichia coli; conditions: Escherichia coli; E. coli 25922, microbroth dilution; read-out: MIC, 25922
[7] = test system: Pseudomonas aeruginosa (P. aeruginosa) 27853; assay: Antibacterial activity, MIC, P. aeruginosa 27853; type: cell-based; conditions: Pseudomonas aeruginosa, P. aeruginosa 27853; read-out: MIC 27853
Description: as §1
Antibacterial activity of test compounds against the Gram-negative bacterium Pseudomonas aeruginosa (P. aeruginosa) 27853 is shown in Table 5.

[8] = test system: Moraxella catarrhalis (M. catarrhalis) 25238; assay: Antibacterial activity, MIC, M. catarrhalis 25238; type: cell-based; conditions: Moraxella catarrhalis, M. catarrhalis 25238; read-out: MIC 25238
[9] = test system: E. coli ELZ4251 (MDR clinical isolate); assay: Antibacterial activity, MIC, MDR E. coli ELZ4251; type: cell-based, Escherichia coli; conditions: Escherichia coli, E. coli ELZ4251, MDR clinical isolate; read-out: MIC ELZ4251
[10] = test system: quinolone resistant E. coli LZ3111; assay: Antibacterial activity, MIC, quinolone resistant E. coli LZ3111; type: cell-based, Escherichia coli; conditions: Escherichia coli, read-out: MIC, LZ3111
Description: as §1
Mutations in these regions are known to confer a high level resistance to the quinolone class of antibiotics.

[11] = E. coli BAS849, microbroth dilution

SMILES	MIC [1, 11] [µg/mL]	MIC [2] [µg/mL]	MIC [3] [µg/mL]	MIC [4] [µg/mL]	MIC [5] [µg/mL]	MIC [6] [µg/mL]	MIC [7] [µg/mL]	MIC [8] [µg/mL]	MIC [9] [µg/mL]	MIC [10] [µg/mL]	MIC [1] [µg/mL]
CCCc1cc(C(=O)O)c(=O)[nH]c1-c1ccc(N(C)C)cc1 [Cpd 8, 6-[4-(dimethylamino)phenyl]-2-oxo-5-propyl-1,2-dihydropyridine-3-carboxylic acid]	< 1	12.5 to 150 (≈ 41.6 to 499 µM)	12.5 to 150 (≈ 41.6 to 499 µM)	< 1	< 1	3.5 to 12.5 (≈ 11.7 to 41.6 µM)	12.5 to 150 (≈ 41.6 to 499 µM)	< 1	12.5 to 150 (≈ 41.6 to 499 µM)	12.5 to 150 (≈ 41.6 to 499 µM)	–
CCc1cc(C(=O)O)c(=O)[nH]c1-c1ccc(N(C)CCO)cc1 [Cpd 17, 5-ethyl-6-{4-[(2-hydroxyethyl)(methyl)amino]phenyl}-2-oxo-1,2-dihydropyridine-3-carboxylic acid]	< 1	12.5 to 150 (≈ 39.5 to 474 µM)	12.5 to 150 (≈ 39.5 to 474 µM)	< 1	< 1	3.5 to 12.5 (≈ 11.1 to 39.5 µM)	–	< 1	12.5 to 150 (≈ 39.5 to 474 µM)	12.5 to 150 (≈ 39.5 to 474 µM)	–
CCc1c(-c2ccc(N3CCNCC3)cc2)[nH]c(=O)c(C(=O)O)c1O.O=C(O)C(F)(F)F [Cpd 105, 5-ethyl-4-hydroxy-2-oxo-6-[4-(piperazin-1-yl)phenyl]-1,2-dihydropyridine-3-carboxylic acid trifluoroacetate]	–	12.5 to 150	12.5 to 150	1 to 3.5	3.5 to 12.5	3.5 to 12.5	–	3.5 to 12.5	12.5 to 150	12.5 to 150	1 to 3.5
CCc1cc(C(=O)O)c(=O)[nH]c1-c1ccc(N2CC(O)C2)cc1 [Cpd 121, 5-ethyl-6-[4-(3-hydroxyazetidin-1-yl)phenyl]-2-oxo-1,2-dihydropyridine-3-carboxylic acid]	< 1	12.5 to 150 (≈ 39.8 to 477 µM)	12.5 to 150 (≈ 39.8 to 477 µM)	< 1	< 1	3.5 to 12.5 (≈ 11.1 to 39.8 µM)	–	< 1	12.5 to 150 (≈ 39.8 to 477 µM)	12.5 to 150 (≈ 39.8 to 477 µM)	–
CCc1cc(C(=O)O)c(=O)[nH]c1-c1ccc(N2CC[C@H](N)C2)cc1.Cl [Cpd 132, 6-{4-[(3S)-3-aminopyrrolidin-1-yl]phenyl}-5-ethyl-2-oxo-1,2-dihydropyridine-3-carboxylic acid hydrochloride]	< 1	3.5 to 12.5	12.5 to 150	< 1	< 1	1 to 3.5	–	< 1	12.5 to 150	12.5 to 150	–
CCc1cc(C(=O)O)c(=O)[nH]c1-c1ccc(N2C[C@@H](N)[C@H](OC)C2)cc1.Cl [Cpd 134, 6-{4-[(3R,4R)-3-amino-4-methoxypyrrolidin-1-yl]phenyl}-5-ethyl-2-oxo-1,2-dihydropyridine-3-carboxylic acid hydrochloride]	< 1	12.5 to 150	12.5 to 150	< 1	< 1	3.5 to 12.5	–	3.5 to 12.5	12.5 to 150	12.5 to 150	–
CCc1cc(C(=O)O)c(=O)[nH]c1-c1ccc(N2CC3CC2CN3)cc1.O=C(O)C(F)(F)F (stereo not shown) [Cpd 138, 6-[4-(2,5-diazabicyclo[2.2.1]hept-2-yl)phenyl]-5-ethyl-2-oxo-1,2-dihydropyridine-3-carboxylic acid trifluoroacetate]	–	12.5 to 150	–	12.5 to 150	12.5 to 150	12.5 to 150	–	< 1	–	–	12.5 to 150
CCc1cc(C(=O)O)c(=O)[nH]c1-c1ccc(N2CCC[C@H]2C(F)(F)F)cc1 [Cpd 142, 5-ethyl-2-oxo-6-{4-[(2S)-2-(trifluoromethyl)pyrrolidin-1-yl]phenyl}-1,2-dihydropyridine-3-carboxylic acid]	1 to 3.5 (≈ 2.63 to 9.2 µM)	12.5 to 150 (≈ 32.9 to 394 µM)	–	< 1	3.5 to 12.5 (≈ 9.2 to 32.9 µM)	12.5 to 150 (≈ 32.9 to 394 µM)	–	1 to 3.5 (≈ 2.63 to 9.2 µM)	–	–	–
CCc1cc(C(=O)O)c(=O)[nH]c1-c1ccc(N2CCCC2c2ccccc2)cc1 (stereo not shown) [Cpd 145, 5-ethyl-2-oxo-6-[4-(2-phenylpyrrolidin-1-yl)phenyl]-1,2-dihydropyridine-3-carboxylic acid]	< 1	1 to 3.5 (≈ 2.57 to 9.01 µM)	–	< 1	< 1	12.5 to 150 (≈ 32.2 to 386 µM)	–	< 1	–	–	–
CCc1cc(C(=O)O)c(=O)[nH]c1-c1ccc(N2CCC[C@H]2COC)cc1 [Cpd 146, 5-ethyl-6-{4-[(2S)-2-(methoxymethyl)pyrrolidin-1-yl]phenyl}-2-oxo-1,2-dihydropyridine-3-carboxylic acid]	< 1	12.5 to 150 (≈ 35.1 to 421 µM)	–	< 1	1 to 3.5 (≈ 2.81 to 9.82 µM)	12.5 to 150 (≈ 35.1 to 421 µM)	–	< 1	–	–	–
CCc1cc(C(=O)O)c(=O)[nH]c1-c1ccc(N2[C@H](COC)CC[C@H]2COC)cc1 [Cpd 148, 6-{4-[(2S,5S)-2,5-bis(methoxymethyl)pyrrolidin-1-yl]phenyl}-5-ethyl-2-oxo-1,2-dihydropyridine-3-carboxylic acid]	3.5 to 12.5 (≈ 8.74 to 31.2 µM)	12.5 to 150 (≈ 31.2 to 375 µM)	–	3.5 to 12.5 (≈ 8.74 to 31.2 µM)	12.5 to 150 (≈ 31.2 to 375 µM)	12.5 to 150 (≈ 31.2 to 375 µM)	–	12.5 to 150 (≈ 31.2 to 375 µM)	–	–	–
CCc1cc(C(=O)O)c(=O)[nH]c1-c1ccc(N2CCCC2c2nccs2)cc1 (stereo not shown) [Cpd 156, 5-ethyl-2-oxo-6-{4-[2-(1,3-thiazol-2-yl)pyrrolidin-1-yl]phenyl}-1,2-dihydropyridine-3-carboxylic acid]	< 1	12.5 to 150 (≈ 31.6 to 379 µM)	–	< 1	< 1	12.5 to 150 (≈ 31.6 to 379 µM)	–	< 1	–	–	–
CCc1c(-c2ccc(N(C)C)cc2)[nH]c(=O)c(C(=O)O)c1OC [Cpd 298, 6-[4-(dimethylamino)phenyl]-5-ethyl-4-methoxy-2-oxo-1,2-dihydropyridine-3-carboxylic acid]	3.5 to 12.5 (≈ 11.1 to 39.5 µM)	12.5 to 150 (≈ 39.5 to 474 µM)	–	3.5 to 12.5 (≈ 11.1 to 39.5 µM)	3.5 to 12.5 (≈ 11.1 to 39.5 µM)	12.5 to 150 (≈ 39.5 to 474 µM)	–	12.5 to 150 (≈ 39.5 to 474 µM)	–	–	–
C=CCN(CC=C)c1ccc(-c2[nH]c(=O)c(C(=O)O)c(O)c2CC)cc1 [Cpd 300, 6-{4-[di(prop-2-en-1-yl)amino]phenyl}-5-ethyl-4-hydroxy-2-oxo-1,2-dihydropyridine-3-carboxylic acid]	1 to 3.5 (≈ 2.82 to 9.88 µM)	1 to 3.5 (≈ 2.82 to 9.88 µM)	12.5 to 150 (≈ 35.3 to 423 µM)	< 1	12.5 to 150 (≈ 35.3 to 423 µM)	12.5 to 150 (≈ 35.3 to 423 µM)	–	< 1	12.5 to 150 (≈ 35.3 to 423 µM)	12.5 to 150 (≈ 35.3 to 423 µM)	–
CCc1c(-c2ccc(N(C)C)s2)[nH]c(=O)c(C(=O)O)c1O [Cpd 306, 6-[5-(dimethylamino)thiophen-2-yl]-5-ethyl-4-hydroxy-2-oxo-1,2-dihydropyridine-3-carboxylic acid]	< 1	3.5 to 12.5 (≈ 11.4 to 40.5 µM)	12.5 to 150 (≈ 40.5 to 486 µM)	< 1	< 1	3.5 to 12.5 (≈ 11.4 to 40.5 µM)	–	< 1	12.5 to 150 (≈ 40.5 to 486 µM)	12.5 to 150 (≈ 40.5 to 486 µM)	–
